Experimental data reported in US8415309B2, “Bicyclic nucleosides and nucleotides as therapeutic agents” (priority 2009, dated 2013).
Where two headings read alike, the source gives them in different places.

What was measured:
[1] = Pharmacokinetics in rats; assay type: in vivo, male Sprague-Dawley rats; conditions: Rat
Description: (§1) The pharmacokinetic properties of Compound 9 were determined in male Sprague-Dawley rats, beagle dogs and cynomolgus monkeys (n=3 in each species) with an oral dose of 5 mg/kg and iv dose of 2 mg/kg. PK parameters were analyzed using the WinNonlin noncompartmental model.

[2] = Cytotoxicity (CellTiter-Blue / MTT) run with the replicon assay; assay type: cell-based; conditions: human, MP-1 cells
Description: The assay outline includes the following steps on Day 1: (1) Plate cells at a density of 10,000 cells/well of a 96 well plate and incubate 37° C.; (2) Make compound dilutions; (3) Add compound dilutions to cells; (4) Incubate for 72 h. The assay includes the following steps on Day 4: (1) Perform Cell titer blue assay for cytotoxicity (the assay is based on the reduction of resazurin (cell titer blue) into a fluorescent product, resorufin, in metabolically active cells, and the assay can be duplexed with the assay used for HCV replicon luciferase reporter assay); (2) Perform luciferase assay with the Bright-Glo luciferase substrate (Promega) and read luminescence; (3) Process results.
Under the Alamar blue assay protocol, the assay plates are removed from a 37° C. incubator, and 20 μl of CellTiter-Blue™ Reagent is added. The cells are incubated in the 37° C. incubator for 3 h. The assay plates are shaken for 10 sec and fluorescence at 560Ex/590Em nm is recorded. The results are expressed relative to the 100% untreated control using the following equation: […]=100−[(RFUcompound−RFUblank/RFUuntreated−RFUblank)×100]. Alternatively, under the MTT protocol the extent of cytotoxicity is determined via metabolism of the vital dye 3-(4,5-dimethylthiaxol-2-yl)-2,5-diphenyltetrazolium bromide (MTT). MTT (1 mg/ml) was added to each well and plates incubated for 3 hours incubation at 37° C. Wells were aspirated, iso-propanol […] was added and absorbance values read at 540/690 nm. Compound concentrations that developed 50% cytotoxicity (CC50) were calculated using non-linear regression analysis.

[3] = system: HCV RNA replication (HCV subgenomic replicon in MP-1 cells); assay: Cell-Based HCV RNA Replication Luciferase Reporter Assay; conditions: Hepatitis C virus; for inhibition at 50 µM: read-out: Inhibition at 50 μM (%); for EC50: 72 h
[4] = Pharmacokinetics in monkeys; assay type: in vivo, cynomolgus monkeys
Description: as §1

[5] = Cross-species PK summary; assay type: in vivo, rats, monkeys and dogs; conditions: Sprague-Dawley (rat), beagle (dog), cynomolgus (monkey), plasma
Description: as §1

[6] = Pharmacokinetics in dogs; assay type: in vivo, beagle dogs; conditions: Dog
Description: as §1

[7] = oral 5 mg/kgBW, read-out: Cmax (maximum concentration observed following the oral dose)
[8] = MP-1 cells, luciferase readout, read-out: EC50

Row | Structure (SMILES) | CC50 at 72 h [2] | inhibition at 50 µM ([3]; 50 μM compound) | EC50 [3, 8] | further results
1 | C[C@@]1(O)[C@H](O)[C@@H](CO)O[C@H]1c1ccc2c(N)ncnn12 [Compound 9, 4-amino-7-(2-C-methyl-β-D-ribofuranosyl)-pyrrolo[2,1-f][1,2,4]triazine] | 365 µM | 99% | 1.3 µM | Cmax [1, 7]: 2380 nM; CL (total clearance) ([1]; single iv 2 mg/kgBW): 18.8 mL/min/kgBW; Vss (steady state volume distribution) ([1]; single iv 2 mg/kgBW): 4.19 L/kgBW; bioavailability ([1]; male, Sprague-Dawley, plasma, 5 mg/kg, oral 5 mg/kgBW vs iv 2 mg/kgBW, read-out: F % (oral bioavailability)): 83%; AUC ([1]; male, Sprague-Dawley, plasma, 5 mg/kg, single iv (2 mg/kgBW) or oral dose (5 mg/kgBW), read-out: AUC (area under the curve of plasma exposure)): 13 µM·h; half-life ([1]; male, Sprague-Dawley, plasma, single iv (2 mg/kgBW) or oral dose (5 mg/kgBW), read-out: t1/2 (terminal elimination half-life) (converted)): 4 h; CL (total clearance) ([4]; Monkey, single iv 2 mg/kgBW): 20.5 mL/min/kgBW; Vss (steady state volume distribution) ([4]; Monkey, single iv 2 mg/kgBW): 2.43 L/kgBW; bioavailability ([4]; cynomolgus monkey, plasma, 5 mg/kg, oral 5 mg/kgBW vs iv 2 mg/kgBW, read-out: F % (oral bioavailability)): 33%; Cmax ([4]; cynomolgus monkey, plasma, 5 mg/kg, oral 5 mg/kgBW, read-out: Cmax (maximum concentration observed following the oral dose)): 820 nM; AUC ([4]; cynomolgus monkey, plasma, 5 mg/kg, single iv (2 mg/kgBW) or oral dose (5 mg/kgBW), read-out: AUC (area under the curve of plasma exposure)): 5 µM·h; half-life ([4]; cynomolgus monkey, plasma, single iv (2 mg/kgBW) or oral dose (5 mg/kgBW), read-out: t1/2 (terminal elimination half-life) (converted)): 4.3 h; bioavailability ([5]; po, 5 mg/kg, range over rat, monkey, dog, read-out: oral bioavailability across species): 33 to 96%; half-life ([5]; range over preclinical animal species (rat, monkey, dog), read-out: plasma / elimination half-life across species): 4 to 7.6 h; Cmax [6, 7]: 8360 nM; CL (total clearance) ([6]; single iv 2 mg/kgBW): 11.4 mL/min/kgBW; Vss (steady state volume distribution) ([6]; single iv 2 mg/kgBW): 5.22 L/kgBW; bioavailability ([6]; beagle, plasma, 5 mg/kg, oral 5 mg/kgBW vs iv 2 mg/kgBW, read-out: F % (oral bioavailability)): 96%; AUC ([6]; beagle, plasma, 5 mg/kg, single iv (2 mg/kgBW) or oral dose (5 mg/kgBW), read-out: AUC (area under the curve of plasma exposure)): 24.9 µM·h; half-life ([6]; beagle, plasma, single iv (2 mg/kgBW) or oral dose (5 mg/kgBW), read-out: t1/2 (terminal elimination half-life) (converted)): 7.6 h
2 | C[C@@]1(O)[C@H](O)[C@@H](CO)O[C@H]1c1cc(F)c2c(N)ncnn12 [Compound 11, 4-amino-5-fluoro-7-(2-C-methyl-β-D-ribofuranosyl)-pyrrolo[2,1-f][1,2,4]triazine] | > 100 µM | 97% | 3.1 µM | 
3 | C[C@@]1(O)[C@H](O)[C@@H](CO)O[C@H]1c1cc(Cl)c2c(N)ncnn12 [Compound 12, 4-amino-5-chloro-7-(2-C-methyl-β-D-ribofuranosyl)-pyrrolo[2,1-f][1,2,4]triazine] | 6.5 µM | 99% | 0.22 µM | 
4 | C[C@@]1(O)[C@H](O)[C@@H](CO)O[C@H]1c1cc(I)c2c(N)ncnn12 [Compound 13, 4-amino-5-iodo-(2-C-methyl-β-D-ribofuranosyl)-pyrrolo[2,1-f][1,2,4]triazine] |  | 97% |  | 
5 | C[C@@]1(O)[C@H](O)[C@@H](CO)O[C@H]1c1cc(C#N)c2c(N)ncnn12 [Compound 14, 4-amino-7-(2-C-methyl-β-D-ribofuranosyl)-pyrrolo[2,1-f][1,2,4]triazine-5-carbonitrile] | 18.8 µM | 100% | 1.4 µM | 
6 | C[C@@]1(O)[C@H](O)[C@@H](CO)O[C@H]1c1cc(C(N)=O)c2c(N)ncnn12 [Compound 15, 4-amino-7-(2-C-methyl-β-D-ribofuranosyl)-pyrrolo[2,1-f][1,2,4]triazine-5-carboxylic acid amide] | 0.37 µM | 100% | 0.0062 µM | 
7 | C[C@@]1(O)[C@H](O)[C@@H](CO)O[C@H]1c1cc(C#C[Si](C)(C)C)c2c(N)ncnn12 [Compound 16, 4-amino-5-trimethylsilanylethynyl-7-(2-C-methyl-β-D-ribofuranosyl)-pyrrolo[2,1-f][1,2,4]triazine] |  | 99% |  | 
8 | C#Cc1cc([C@@H]2O[C@H](CO)[C@@H](O)[C@@]2(C)O)n2ncnc(N)c12 [Compound 17, 4-Amino-5-ethynyl-7-(2-C-methyl-β-D-ribofuranosyl)-pyrrolo[2,1-f][1,2,4]triazine] |  | 98% |  | 
9 | C[C@@]1(O)[C@H](O)[C@@H](CO)O[C@H]1c1ccc2c(N)nc(N)nn12 [Compound 20, 2,4-diamino-7-(2-C-methyl-β-D-ribofuranosyl)-pyrrolo[2,1-f][1,2,4]triazine] |  | 19% |  | 
10 | C[C@@]1(O)[C@H](O)[C@@H](CO)O[C@H]1c1cc(-c2ncco2)c2c(N)ncnn12 [Compound 22, 4-amino-5-oxazol-2-yl-7-(2-C-methyl-β-D-ribofuranosyl)-pyrrolo[2,1-f][1,2,4]triazine] |  | 95% |  | 
11 | C[C@@]1(O)[C@H](O)[C@@H](CO)O[C@H]1c1c(F)cc2c(N)ncnn12 [Compound 32, 4-Amino-6-fluoro-7-(2-C-methyl-β-D-ribofuranosyl)-pyrrolo[2,1-f][1,2,4]triazin-7-yl] |  | 23% |  | 
12 | CC(C)(C)C(=O)OCOP(=O)(OCOC(=O)C(C)(C)C)OC[C@H]1O[C@@H](c2ccc3c(N)ncnn23)[C@](C)(O)[C@@H]1O [Compound 34, Bis-POM (pivaloyloxymethyl) prodrug of 4-amino-7-(2-C-methyl-β-D-ribofuranosyl)-pyrrolo[2,1-f][1,2,4]triazine] | 45 µM |  |  | EC50 [3]: 3.8 µM; inhibition at 50 µM [3]: 100%
13 | C[C@@]1(O)[C@H](O)[C@@H](CO)O[C@H]1c1cc(C2=NCCN2)c2c(N)ncnn12 [Compound 35, 4-amino-5-imidazoline-7-(2-C-methyl-β-D-ribofuranosyl)-pyrrolo[2,1-f][1,2,4]triazine] |  | 99% |  | 
14 | C[C@@]1(O)[C@H](O)[C@@H](CO)O[C@H]1c1cc(-c2ncc[nH]2)c2c(N)ncnn12 [Compound 38, 4-amino-5-imidazole-7-(2-C-methyl-β-D-ribofuranosyl)-pyrrolo[2,1-f][1,2,4]triazine] |  | 99% |  | 
